# Measurements as given in patent publication US11419840B2, “Compositions and methods comprising C16:1N7-palmitoleate” (Tersus Life Sciences, LLC, priority 2011, dated 2022).
# Columns and labels:
# Apo E knockout mice [1] = assay: Quantification of aorta lesions (en face Sudan IV staining); type: in vivo, mouse; conditions: rosuvastatin 20 mg/kg/day; its own control 21.9 ± 2.9, P<0.05
# Description: Thirty-four male Apo E knockout mice were obtained from Jackson Laboratories (Bar Harbor, Me.). The mice were fed with normal mouse chow until 2 months of age and randomly allocated into two groups (n=17 each). One group of mice was then fed a control Western high-fat diet (F5722, fat 20%, cholesterol 2.1 gm/kg). The other group was fed a composition comprising C16:1n7-palmitoleate (CCO-Oil 20 wt %, cholesterol 2.1 gm/kg). […] Water was freely available throughout the course of the study. Blood samples were obtained 8 and 12 weeks after initiation of the diet. At 12 weeks, all mice were sacrificed by intraperitoneal injection of ketamine/xylazine. […] Data were presented as mean±SD. Statistical analysis was performed with t-test. P<0.05 indicates statistical significance.
# The surface area of aorta occupied by atherosclerotic lesions was quantified by en face oil red 0 staining, using an approach modified from Palinski et al. After mice were killed, a catheter was inserted into the left ventricle and the arterial tree was perfused with PBS (25 ml), followed by 4% buffered formaldehyde (20 ml, PH 7.4) at a pressure of 100 mm Hg. Under a microscope (Leica M500) the entire aorta attached to the heart was dissected and the adventitial fat was dissected. The ascending aorta was transected, and the heart was placed in histo-choice for assessment of aortic root atherosclerosis. […]
# Apo E knockout mice [2] = assay: Quantification of aortic sinus lesions (oil red O staining of aortic root); type: in vivo, mouse; conditions: rosuvastatin 20 mg/kg/day; its own control 0.36 ± 0.10
# Description: Thirty-four male Apo E knockout mice were obtained from Jackson Laboratories (Bar Harbor, Me.). The mice were fed with normal mouse chow until 2 months of age and randomly allocated into two groups (n=17 each). One group of mice was then fed a control Western high-fat diet (F5722, fat 20%, cholesterol 2.1 gm/kg). […] CCO-Oil has approximately 20 wt % C16:1n7-palmitoleate. The consistency of the food was a paste; it appeared to be enticing to the mice and well tolerated. Water was freely available throughout the course of the study. Blood samples were obtained 8 and 12 weeks after initiation of the diet. At 12 weeks, all mice were sacrificed by intraperitoneal injection of ketamine/xylazine. […] Data were presented as mean±SD. Statistical analysis was performed with t-test. P<0.05 indicates statistical significance.
# The surface area of aorta occupied by atherosclerotic lesions was quantified by en face oil red 0 staining, using an approach modified from Palinski et al. After mice were killed, a catheter was inserted into the left ventricle and the arterial tree was perfused with PBS (25 ml), followed by 4% buffered formaldehyde (20 ml, PH 7.4) at a pressure of 100 mm Hg. Under a microscope (Leica M500) the entire aorta attached to the heart was dissected and the adventitial fat was dissected. […]
smiles,measurement,setting,value
CC(C)c1nc(N(C)S(C)(=O)=O)nc(-c2ccc(F)cc2)c1/C=C/[C@@H](O)C[C@@H](O)CC(=O)O [Rosuvastatin],Aortic lesion (% of surface area),Apo E knockout mice [1],11.9 ± 1.9 %
same,Aortic sinus lesion size,Apo E knockout mice [2],0.35 ± 0.10 mm^2
